The subject of test [1] is platelet aggregation in response to collagen (human platelet-rich plasma). As to the kind of experiment: Platelet aggregation in vitro, response to collagen. Conditions: human P.R.P., 37° C., 3 min preincubation, 50% inhibition of just-maximal collagen response. Type of test: cell-based. How it is done:
(§1) Human blood (20 ml) is drawn into a plastic syringe and immediately anti-coagulated by mixing with 0.1 volumes of 3.8% (w/v) trisodium citrate dihydrate. Platelet-rich plasma (P.R.P.) is prepared by centrifuging the anticoagulated blood of 180 g, for 12 minutes, at room temperature. Collagen "Collagen-reagent Horm" (Hormon-Chemie Munchem, Postfach 101, Germany) is dilated as necessary with 0.9% (w/v) saline and kept on ice. Adenosine 5'-diphosphate (A.D.P.) (Grade 1: sodium salt from equine muscle, Sigma.) is diluted, as necessary with 0.9% saline, from a 10 mM stock solution, pH 6.8 kept at -20° C. The compounds are dissolved freshly to 40 mM in dimethylformamide. P.R.P. is mixed with 0.1 volumes saline and 0.005 volumes compound on dimethylformamide (control) and incubated at 37° C. for 3 minutes before the addition of collagen.
(§2) Platelet aggregation in response to collagen and A.D.P. is measured photometrically (Born G.V.R., 1962, Nature, 194 927) in a Bryston aggregometer coupled to a Vitatron linear pen recorder. The concentration of collagen producing a just-maximal change in light transmittance and the concentration of A.D.P. to produce only a first-phase aggregation response are established in each control P.R.P. The concentration of compounds to inhibit these control response by 50% in each case are determined.

In test [2] the test system is platelet aggregation in response to A.D.P. (human platelet-rich plasma). As to the kind of experiment: Platelet aggregation in vitro, response to A.D.P. Type of test: cell-based. Particulars: human P.R.P., 37° C., 3 min preincubation, 50% inhibition of first-phase aggregation response, read-out: IC50 vs. ADP. The protocol:
as §1, §2

Test [3] concerns 5-hydroxytryptamine induced bronchoconstriction. As to the kind of experiment: Inhibition of 5-hydroxytryptamine induced bronchoconstriction in anaesthetised, artificially respired guinea pig (Konzett-Rossler preparation). The format is in vivo. How it is done: 1. The compounds were examined for their ability to inhibit 5-hydroxytryptamine induced bronchoconstriction in the anaesthetised, artificially respired guinea pig (Konzett-Rossler preparation). The compounds were administered intravenously.

For test [4], the system named is histamine induced changes in pulmonary resistance and lung compliance. As to the kind of experiment: Inhibition of histamine induced changes in pulmonary resistance and lung compliance in anaesthetised spontaneously respiring guinea pig. The format is in vivo. Conditions: Cavia porcellus, iv. How it is done:
2. The compounds were tested for their ability to inhibit histamine induced changes in pulmonary resistance and lung compliance in the anaesthetised spontaneously respiring guinea pig. The compounds were administered intravenously.

Test [5] concerns bronchoconstriction induced by an histamine aerosol. Put plainly: Protection of conscious guinea pigs against bronchoconstriction induced by histamine aerosol (Herxheimer test). Particulars: aerosol generated from a 100 μg/ml solution. Type of test: in vivo, guinea pig. How it is done:
3. The compounds were also examined for their ability to protect conscious guinea pigs against bronchoconstriction induced by an histamine aerosol (Herxheimer test). In these experiments the compounds were administered by aerosol administration.

Where two headings read alike, the source gives them in different places.

For orientation: IC50 means the midpoint of a concentration-inhibition curve.

As for `CCCCCCC(O)CCN1C(=O)CC2OC(CCCCC(=O)OCC)CC21` (single isomer, unassigned) [Example 4 (Higher Rf epimer), 2-(4'-ethoxycarbonyl-n-butyl)-4-(3"-hydroxy-n-nonyl)-5-oxo-5H-hexahydrofuro[3,2b]pyrrole], the figures for the half-inhibitory concentration (IC50) in test [1] and in test [2] were 2.9 µM and 7.4 µM, respectively.

Take `CCCCCCC(O)CCN1C(=O)CC2OC(CCCCC(=O)OCC)CC21` (single isomer, unassigned) [Example 4 (Lower Rf epimer), 2-(4'-ethoxycarbonyl-n-butyl)-4-(3"-hydroxy-n-nonyl)-5-oxo-5H-hexahydrofuro[3,2b]pyrrole]: the IC50 was 28 µM in test [1] and 120 µM in test [2].

For `CCCCCCC(C)(O)CCN1C(=O)CC2OC(CCCCC(=O)OCC)CC21` (stereo not shown) [Example 1, 2-(4'-Ethoxycarbonyl-n-butyl)-4-(3"-hydroxy-3"-methyl-n-nonyl)-5-oxo-5H-hexahydro-furo[3,2-b]pyrrole], the ED50 amounted to 0.131 mg/kg in test [3] (Cavia porcellus, iv, mean of 3 experiments, read-out: ED 50 against 5-hydroxytryptamine induced bronchoconstriction); 0.046 mg/kg in test [4] (lung compliance, read-out: ED 50 against compliance changes); 0.033 mg/kg in test [4] (pulmonary resistance, read-out: ED 50 against resistance changes). Also, the “ED 50 range against 5-hydroxytryptamine induced bronchoconstriction” value in test [3] (i.v., range of 3 experiments) fell in the range of 0.115 to 0.15 mg/kg. Also, the IC50 came out at 8.8 µM in test [1] (Homo sapiens, Platelet) and 35 µM in test [2] (Homo sapiens, Platelet). The “protection against histamine challenge” value in test [5] is listed as “highly significant protection”.

Regarding `CCCCCC(O)CCN1C(=O)CC2OC(CCCCC(=O)OC)CC21` (stereo not shown) [Example 3, 4-(3"-Hydroxy-n-octyl)-2-(4'-methoxycarbonyl-n-butyl)-5-oxo-5H-hexahydrofuro[3,2-b]pyrrole], the IC50 in test [1] (Homo sapiens, Platelet) came to 1.7 µM; in test [2] (Homo sapiens, Platelet), 4.9 µM.

With `CCOC(=O)CCCCC1CC2C(CC(=O)N2CCC(C)(O)CC2CCCCC2)O1` (stereo not shown) [Example 5, 2-(4'-ethoxycarbonyl-n-butyl)-4-(3"-hydroxy-3"-hydroxy-3"-methyl-4"-cyclohexyl-n-butyl)5-oxo-5H-hexahydro-furo [3-2b]pyrrole], the IC50 in test [1] (Homo sapiens, Platelet) was determined as 17 µM; in test [2] (Homo sapiens, Platelet) it was 100 µM.

`CCOC(=O)CCCCCC1CC2C(CC(=O)N2CCC(C)(O)C2CCCCC2)O1` (stereo not shown) [Example 6, 2-(5'-ethoxycarbonyl-n-pentyl)-4-(3"-hydroxy-3"-cyclohexyl-n-butyl)-5-oxo-5H-hexahydro-furo[3,2b]pyrrole]: the IC50 in test [1] (Homo sapiens, Platelet) turned out to be 1.2 µM; in test [2] (Homo sapiens, Platelet), 2.5 µM.

As for `CCOC(=O)CCCCC1CC2C(CC(=O)N2CCC(C)(O)C2CCCCC2)O1` (stereo not shown) [Example 7, 2-(5'-ethoxycarbonyl-n-butyl)-4-(3"-hydroxy-3"-cyclohexyl-n-butyl)-5-oxo-5H-hexahydro-furo[3,2b]pyrrole], the IC50 in test [1] (Homo sapiens, Platelet) amounted to 0.26 µM; in test [2] (Homo sapiens, Platelet), 0.54 µM.

The record behind these values is patent publication US4262008A, “2,4-Disubstituted 5-oxo-5H-hexahydrofuro[3,2b]pyrroles” (Beecham Group Limited, priority 1978, dated 1981).
